Source: patent publication US5527697A, “7-amino-3-methoxymethyl-3-cephem-4-carboxylic ester hydrolase, process for its preparation, and its use” (Hoechst Aktiengesellschaft, priority 1992, dated 1996)
Counter-ions that a name gives are not always drawn.

Tests used:
[1] = system: esterase according to the invention (MACA-ester hydrolase); assay: substrate specificity of the esterase according to the invention; type: biochemical
Text: Following partial purification, the enzyme can be bound without difficulty, for example to the enzyme carrier VA-Epoxy-Biosynth®. The activity is normally determined by conversion of MACA-ester to MACA. HPLC or TLC is then employed for the quantitative evaluation of the amount of MACA that is formed.
The following table contains further information concerning the substrate specificity of the esterase according to the invention: […]

[2] = system: immobilized enzyme (MACA-ester hydrolase); assay: cleavage of MACA ester (R) with immobilized esterase; type: biochemical, Nocardia sp. ATCC 53492; details: within 6-8 hours; pH 6.8, 30° C.; 5 g substrate, 100 g moist immobilized enzyme
Method: 2.5 g of R-ester hydrochloride are dissolved in 800 ml of 50 mM potassium phosphate solution, pH=6.8. 100 g of moist, immobilized enzyme are then added with stirring. The pH is kept at 6.8 and the temperature at 30° C. Further 1.25 g amounts of substrate are added after 2.5 h and after 41/4 h. In all, the mixture contains 5 g of MACA ester (R). The cleavage proceeds within the space of 6-8 hours to 95% conversion according to HPLC. The cleavage solution is separated from the enzyme and lyophilized. About 10 g of a white solid are obtained.

[3] = substrate concentration 100 mM, relative to MACA ester pro J = 100
[4] = substrate concentration 2.5 mM, MACA ester pro J = 100
[5] = substrate concentration 1.59 mM, HEPES, pH 6.95
[6] = substrate concentration 2.5 mM, phosphate buffer, pH 6.8

| Compound | Activity U/mg ([1]; substrate concentration 100 mM) | Activity U/ml ([1]; substrate concentration 100 mM) | Activity % [1, 3] | also measured |
| --- | --- | --- | --- | --- |
| CC(OC(=O)C(C)(C)C)OC(=O)C(C)(C)C | – | – | – | Activity U/mg ([1]; substrate concentration 50 mM): 3.5 U/mg; Activity U/ml ([1]; substrate concentration 50 mM): 1.4 U/ml; Activity % ([1]; substrate concentration 50 mM, relative to MACA ester pro J = 100): 4% |
| CCOC(=O)C(C)N (racemic) [D,L-alanine ethyl ester] | 40 U/mg | 16 U/ml | 45.5% | – |
| CCOC(=O)C(C)Cl (stereo not shown) [Ethyl 2-chloro-propionate, ethyl 2-chloropropionate] | 75 U/mg | 30 U/ml | 85.2% | – |
| CCOC(=O)C(C)(C)C [Ethyl pivalate] | 42.75 U/mg | 17.1 U/ml | 48.6% | – |
| CCOC(=O)CC [Ethyl propionate] | 50 U/mg | 20 U/ml | 56.8% | – |
| COCC1=C(C(=O)O[C@H](C)OC(=O)C(C)(C)C)N2C(=O)C(N)[C@@H]2SC1 (stereo partly drawn) [MACA ester pro J, (1R,S)-1-(2,2-dimethylpropionyloxy)-ethyl 7-amino-3-methoxymethyl-3-cephem-4-carboxylate] | – | – | – | Activity U/mg ([1]; substrate concentration 2.5 mM): 87.75 U/mg; Activity U/ml ([1]; substrate concentration 2.5 mM): 35.2 U/ml; Activity % [1, 4]: 100% |
| COCC1=C(C(=O)O[C@H](C)OC(=O)C(C)(C)C)N2C(=O)C(N)[C@@H]2SC1 (stereo partly drawn) [MACA ester pro K, (1R,S)-1-(2,2-dimethylpropionyloxy)-ethyl 7-amino-3-methoxymethyl-3-cephem-4-carboxylate] | – | – | – | Activity U/mg ([1]; substrate concentration 2.5 mM): 87.75 U/mg; Activity U/ml ([1]; substrate concentration 2.5 mM): 35.1 U/ml; Activity % [1, 4]: 99.7% |
| COCC1=C(C(=O)O[C@H](C)OC(=O)C(C)(C)C)N2C(=O)[C@@H](N)[C@H]2SC1 [R-ester hydrochloride] | – | – | – | conversion according to HPLC [2]: 95% |
| CC(=O)OCC(COC(C)=O)OC(C)=O [Triacetin] | 92.75 U/mg | 37.1 U/ml | 105.4% | – |
| CCCC(=O)OCC(COC(=O)CCC)OC(=O)CCC [Tributyrin] | 93.75 U/mg | 37.5 U/ml | 106.5% | – |
| CC(=O)Oc1ccc([N+](=O)[O-])cc1 [p-Nitrophenyl acetate, p-nitrophenyl acetate] | – | – | – | Activity U/mg [1, 5]: 76.0 U/mg; Activity U/ml [1, 5]: 30.4 U/ml; Activity % ([1]; substrate concentration 1.59 mM, HEPES, pH 6.95, relative to MACA ester pro J = 100): 86.4%; Activity U/mg [1, 6]: 108.75 U/mg; Activity U/ml [1, 6]: 43.5 U/ml; Activity % ([1]; substrate concentration 2.5 mM, phosphate buffer, pH 6.8, relative to MACA ester pro J = 100): 123.6% |
